Data reported in patent US8007991B2, “Three-dimensional physiological matrices for oncological testing, and methods for their production and use” (priority 2006, dated 2011).

System: Patient Sample GS-640, kidney tissue (renal cell carcinoma)
Assay: Tumor fragment growth and invasion (cell migration) in three-dimensional gel matrix, 48-well plate chemotherapy screening
Format: cell-based, human
Settings: 5 days treatment; for distance of cell migration away from the solid tumor fragment / number of cells that have grown and invaded away from the solid tumor fragment: 37 degrees Celsius; for distance of cell migration away from the solid tumor fragment: 5% CO2, photomicrograph; for number of cells that have grown and invaded away from the solid tumor fragment: 5% CO2, photomicrograph compared with untreated control (FIG. 5); for response to the drug (overall): renal cell carcinoma patient sample
Source text: FIGS. 1-8 are photographic and photomicrographic images which show, by way of example, use of the means and methods of the present invention with respect to a tissue sample removed from a patient. With respect to FIGS. 1-8, Patient Sample GS-640, comprising kidney tissue, was removed from the patient by a surgeon during surgery.
Tissue analysis and screening in accordance with the invention were requested by the surgeon, and proper consent was obtained from the patient prior to surgical removal of a sample quantity of tissue from the RHS Kidney. The patient was diagnosed with renal cell carcinoma. A tissue sample of approximately 1 gram in quantity was removed from the patient during surgery, and was placed into a 25 ml sample jar, and immersed in sterile saline. The tumor tissue was kept at 4 degrees centigrade until processed for the screening of therapeutic compounds in accordance with the means and methods of the invention. All procedures were performed under sterile conditions in a bio-safety laminar flow hood.
FIG. 1 is a photographic image showing the mechanical division of the sample into portions to be tested. The sample has been prepared by dissecting away any non viable tissue and blood prior to mincing into 1-2 mm pieces using sterile disposable scalpels.
FIG. 2 is a photographic image showing tumor sample portions which have been placed into each well of a 48 well plate, and been submersed in a gel matrix mixture according to the invention. After insertion of the portions, the mixture was allowed to form into a gel at room temperature for approximately 30 minutes. Once the gel formed around the fully immersed tumor fragments, nutrient rich media was added as a liquid overlay that permeated the entire gel and tumor fragment.
Each different chemotherapy and or dose of chemotherapy was added to a set of 6 wells out of the 48-well plate. A total of 7 different chemotherapies were assessed in this plate. One set of six wells were not treated with drug and thus acted as ‘control conditions’ for tumor fragment growth and invasion. Each of the eight vertical lanes containing six separate wells was marked with a symbol for each chemotherapy/dose used and noted correspondingly on data collection sheets. […] The plates were then placed in a conventional 37 degree Celsius incubator at 5% CO2.
This image is thus representative of all wells at Day 0 with or without chemotherapeutics. Images were made with a 400× magnification phase contrast micrograph using ZEISS camera specs.
Noteworthy is the halo of cells and increased cell density as compared with the results shown at Day 3 of the test. The lines on the images have been drawn to show the distance measurements within which approximately 95% of the migrating cells have migrated away from the margins of the tissue sample.

SMILES | distance of cell migration away from the solid tumor fragment | number of cells that have grown and invaded away from the solid tumor fragment | response to the drug (overall)
CC(=O)O[C@H]1C(=O)[C@@]2(C)[C@H]([C@H](OC(=O)c3ccccc3)[C@]3(O)C[C@H](OC(=O)[C@H](O)[C@@H](NC(=O)c4ccccc4)c4ccccc4)C(C)=C1C3(C)C)[C@]1(OC(C)=O)CO[C@@H]1C[C@@H]2O [Taxol, Paclitaxel] | a drop in both the distance and the number of cells | a drop in both the distance and the number of cells | 
N.N.[Cl][Pt][Cl] [Cisplatin] |  | identical in appearance and cell numbers to the control sample | failed chemotherapy
CC(=O)O[C@@]12CO[C@@H]1C[C@H](O)[C@@]1(C)C(=O)[C@H](O)C3=C(C)[C@@H](OC(=O)[C@H](O)[C@@H](NC(=O)OC(C)(C)C)c4ccccc4)C[C@@](O)([C@@H](OC(=O)c4ccccc4)[C@H]21)C3(C)C [Docetaxol, Docetaxel] | longer migratory distance than treatment with Taxol | fewer number of invading cells than the control | moderate response
